Measured values published in US20260069538A1, “CXCR4 ANTAGONIST LOADED LIPOSOMES AND SILICASOMES” (The Regents of the University of California, priority 2021, published 2026).
Read-outs that look alike come from different tables or passages of the source.

What was measured:
[1] = for EE % / LC %: liposome DSPC:Chol:DSPE-PEG2000 3:2:0.15, drug feed ratio 20% (drug:lipids w/w)
Method: This was followed by incubating the liposome suspension in the suspended CXCR4 antagonists using a feed ratio of 20%. The non-incorporated drug was removed by a PD-10 column.
To perform the drug loading, Mavorixafor (MAV or AMD11070) was prepared as stock solution in PBS and added at 20% w/w over the total wt. of the lipids. The MAV/liposome mixed solution was then heated at 65° C. for 1 h then cooled at room temperature for 30 minutes. The separation of encapsulated liposomal MAV (L-MAV) and non-encapsulated MAV (free MAV) was again, through the use of PD10 size exclusion column.
The elution profile of the free MAV is pre-determined by eluting free MAV through the PD10 and measuring the UV absorbance for each elution fraction at λmax 275 nm. In a typical run a 95%+ MAV recovery will be found between 10-20 mL fractions. The free-MAV fractions was collected and combined to quantify the free-MAV by UV at λmax 275 nm. Again, the L-MAV was collected from elution 2.75-5.75 mL (3 mL in total), the free-MAV was collected from 10-20 mL fractions.
Based on the free-MAV quantification, the drug loading of L-MAV was back calculated by subtracting the free MAV from the initial MAV feeding=20% w/w. […] Based on the drug loaded L-MAV concentration (mg/mL), L-MAV was concentrated by using 50 mL VIVA-spin tubes at 30 kDa cut-off to a final concentration of 0.1 mg/mL (=0.5 mg/kg per 200 μL injection for a 20 g mouse).

[2] = tested on: metastatic BC models (including 4T1); details: in vivo; cited from earlier work
human PDAC slices = details: cited from earlier work
[3] = Remote loading of CXCR4 antagonists in silicasomes (encapsulation efficiency, loading capacity); assay type: physicochemical; details: for EE % / LC %: silicasome
Method: Following the application of a lipid bilayer, we used the weak basic properties of the of CXCR4 antagonists (AMD3100, AMD3465, AMD070) to attempt silicasome remote loading. To optimize the loading efficiency, two type of trapping agents, triethylammonium sucrose octasulfate (TEA8SOS) and ammonium sulfate ((NH4)2SO4) were tested. Briefly, for lipid coating, 40 mg/mL of the purified MSNPs were soaked in trapping agent solution (80 mM TEA8SOS or 300 mM (NH4)2SO4)) and were added to an ˜50% (w/v) lipids mixture (DSPC/Chol/DSPE-PEG2000, in the molar ratio of 3:2:0.15) solution in ethanol. The MSNP:lipid ratio was 1:1.25 (w/w). The suspension was sonicated using probe sonication (Ultrasonic Processor Model VCX130, 40% amplitude) at a 15 s/15 s on/off cycle.
The free trapping agent was removed through size exclusion chromatography using Sepharose CL-4B resin with a HEPES-buffered dextrose solution (5 mM HEPES, 5% dextrose, pH 6.5) for elution. For drug import, trapping agent-loaded particles were mixed with drug and incubated at 65° C. for 0.5 hour. The drug-laden silicasomes were purified by centrifugation to remove the free drug and liposomes; then filtered with a 0.2 μm membrane for sterilization. The drug concentration was determined by either UV spectroscopy or HPLC. Particle hydrodynamic size and zeta potential were measured by a ZETAPALS instrument (Brookhaven Instruments Corporation). The final product was visualized by cryoEM (TF20 FEI Tecnai-G2) to confirm the uniformity and integrity of the coated lipid bilayer.

X4 HIV strains = details: read-out: inhibits the replication of X4 HIV strains (IC50); cited from earlier work
4T1 tumors = test: Orthotopic 4T1 TNBC tumor model; details: for tumor shrinkage / tumor size: orthotopic 4T1, IV administration
Excerpt: Orthotopic 4T1 tumors were established as described in FIGS. 2-4.

EMT6 tumors = test: Orthotopic EMT6 breast cancer model; assay type: in vivo, mouse (Balb/c)
KPC tumors = test: Orthotopic KPC model: tumor weight and immunophenotyping; assay type: in vivo, mice
[4] = (NH4)2SO4, drug feed ratio 50% (drug:MSNP w/w)
[5] = TEA8SOS, drug feed ratio 50% (drug:MSNP w/w)
[6] = TEA8SOS, drug feed ratio 10% (drug:MSNP w/w)
[7] = TEA8SOS, drug feed ratio 20% (drug:MSNP w/w)

SMILES	EE % ([1]; (NH4)2SO4) [%]	LC % ([1]; (NH4)2SO4) [%]	EE % ([1]; TEA8SOS) [%]	LC % ([1]; TEA8SOS) [%]	EE % [3, 4] [%]	LC % [3, 4] [%]	EE % [3, 5] [%]	LC % [3, 5] [%]	other results
c1cc(CN2CCCNCCNCCCNCC2)ccc1CN1CCCNCCNCCCNCC1 [AMD3100, Plerixafor]	19	3.8	42.4	8.5	27	13.5	51	25.5	CTL recruitment [2]: increase CTL recruitment; blood perfusion [2]: improve blood perfusion; desmoplasia [2]: decrease desmoplasia; immunosuppression [2]: decrease immunosuppression; metastatic spread [2]: limit metastatic spread; CTL migration to the juxta-tumoral PDAC compartment (human PDAC slices; tumor cell slices): improve CTL migration to the juxta-tumoral PDAC compartment; CD8+ T-cell-mediated elimination of EpCAM+ PDAC cancer cells (human PDAC slices; tumor slice culture): did not exert similar effects
c1ccc(CNCc2ccc(CN3CCCNCCNCCCNCC3)cc2)nc1 [AMD3465]	68.4	13.7	37.4	7.5	34.5	17.3	25	12.5	IC50 (X4 HIV strains): 1 to 10 nM
NCCCCN(Cc1nc2ccccc2[nH]1)[C@H]1CCCc2cccnc21 [AMD11070, Mavorixafor]	55.8	11.2	84.3	16.9	68	34	70	35	T cell exclusion in the tumor margin (immunohistochemistry) (4T1 tumors; 4T1 breast cancer tumors): interference in T cell exclusion in the margin; CD8+ spatial distribution during mIHC analysis (4T1 tumors; orthotopic 4T1): failed to show a significant effect; lung metastasis (IVIS imaging of explanted lungs) (4T1 tumors; orthotopic 4T1): significant metastasis reduction; tumor shrinkage / tumor size (4T1 tumors; listed as Free AMD11070): leads to tumor shrinkage; tumor shrinkage / tumor size (4T1 tumors; listed as free AMD11070): tumor shrinkage could be obtained; lung metastasis (IVIS imaging of explanted lungs) (4T1 tumors; orthotopic 4T1, listed as free AMD11070): significant impact on lung metastases; Typical MAV loading ([1]; liposome, 240 mM (NH4)2SO4, MAV feeding 20% w/w, back calculated from free MAV): 8-15 % w/w; best loading capacity (LC) in liposomes ([1]; liposomes): 17%; tumor growth / tumor shrinkage (EMT6 tumors): neither free nor L-AMD11070 were able to interfere in tumor growth; loading capacity ([3]; silicasome in which sucrose sulfate was used (FIG. 11)): 20%; EE % [3, 6]: 95%; LC % [3, 6]: 9.5%; EE % [3, 7]: 85%; LC % [3, 7]: 17%; CXCR4 staining intensity (immunohistochemistry) (KPC tumors): encapsulated but not free AMD11070 delivery could significantly increase CXCR4 staining intensity
